According to patent publication US4733003A, “Octahydronaphthalene derivatives and their preparation” (Sankyo Company Limited, priority 1981, dated 1988):

The compounds below were run on cholesterol biosynthesis (assay: inhibition of cholesterol biosynthesis (method of J. Biol. Chem. 234, 2835 (1959))). Conditions: method of Journal of Biological Chemistry, 234, 2835 (1959).
Type: biochemical
Text: The compounds of the invention in which R^1 and R^2 both represent oxygen atoms are, as already described, valuable intermediates for the synthesis of the active compounds. The inhibitory activities of certain of the compounds of the invention, in terms of the concentration in ng/ml required to inhibit colesterol biosynthesis by 50% [measured by the method described in the Journal of Biological Chemistry, 234, 2835 (1959)], are as follows (for comparison, the value for ML-236B lactone is also given): […]

Compound	concentration required to inhibit colesterol biosynthesis by 50%
CCC(C)C(=O)OC1CCC(=NO)C2=CC(=O)C(C)C(CCC3CC(O)CC(=O)O3)C21 (centres unmarked) [3,4-Dihydro-6-oxo-4-hydroxyiminoIsoML-236B lactone]	0.3 ng/mL
CCC(C)C(=O)OC1CCC(=NOC)C2=CC(=O)C(C)C(CCC3CC(O)CC(=O)O3)C21 (centres unmarked) [3,4-Dihydro-6-oxo-4-methoxyiminoIsoML-236B lactone]	0.6 ng/mL
CC1C(=O)C=C2C(=NO)CCC(O)C2C1CCC1CC(O)CC(=O)O1 (centres unmarked) [3,4-Dihydro-6-oxo-4-hydroxyiminoIsoML-236A lactone]	0.9 ng/mL
CCC(C)C(=O)OC1CCC(=NO)C2=CC(=O)C(C)C(CCC(O)CC(O)CC(=O)O)C21 (centres unmarked) [disodium 3,4-dihydro-6-oxo-4-oxidoiminoIsoML-236B carboxylat] [Disodium 3,4-dihydro-6-oxo-4-oxidoiminoIsoML-236B carboxylate]	0.4 ng/mL
CCC(C)C(=O)OC1CCC(=NO)C2=CC(=NO)C(C)C(CCC3CC(O)CC(=O)O3)C21 (single isomer, unassigned) [isomer a (Example 3), 3,4-Dihydro-4,6-bis(hydroxyimino)IsoML-236B lactone]	4.5 ng/mL
CCC(C)C(=O)OC1CCC(=NO)C2=CC(=O)C(C)C(CCC(O)CC(O)CC(=O)O)C21 (centres unmarked) [sodium 3,4-dihydro-6-oxo-4-hydroxyiminoIsoML-236B carboxylat] [Sodium 3,4-dihydro-6-oxo-4-hydroxyiminoIsoML-236B carboxylate]	0.3 ng/mL
CCC(C)C(=O)OC1CCC(=NO)C2=CC(=NO)C(C)C(CCC3CC(O)CC(=O)O3)C21 (single isomer, unassigned) [isomer b (Example 3), 3,4-Dihydro-4,6-bis(hydroxyimino)IsoML-236B lactone]	4.3 ng/mL
CCC(C)C(=O)OC1CCC=C2C=CC(C)C(CCC3CC(O)CC(=O)O3)C21 (centres unmarked) [ML-236B lactone, reference compound]	10 ng/mL
